Experiment [1] relates to Enterococcus faecium. Nature of the experiment: Antibacterial activity against clinical isolate Enterococcus faecium assessed as reduction in bacterial growth incubated for 24 hrs by broth microdilution method. It counts as functional.
For experiment [2], the system named is Staphylococcus aureus. Nature of the experiment: Antibacterial activity against vancomycin-intermediate resistant Staphylococcus aureus ATCC 700699/Mu50 assessed as reduction in bacterial growth incubated for 24 hrs by broth microdilution method. It counts as functional.
A further experiment concerns Streptococcus pyogenes. Nature of the experiment: Antibacterial activity against Streptococcus pyogenes ATCC 12204 assessed as reduction in bacterial growth incubated for 24 hrs by broth microdilution method. It is filed as functional.
Experiment [3] deals with Enterococcus faecium. Nature of the experiment: Antibiofilm activity against Enterococcus faecium clinical isolate at sub-MIC doses measured after 24 hrs by crystal violet staining based analysis. It counts as functional.
The test system of experiment [4] is Staphylococcus aureus. Nature of the experiment: Antibiofilm activity against vancomycin-intermediate resistant Staphylococcus aureus ATCC 700699/Mu50 at sub-MIC doses measured after 24 hrs by crystal violet staining based analysis. It counts as functional.
The subject of a further experiment is Klebsiella pneumoniae. Nature of the experiment: Antibacterial activity against Klebsiella pneumoniae ATCC 13883 assessed as reduction in bacterial growth incubated for 24 hrs by broth microdilution method. It is filed as functional.
Experiment [5] relates to Pseudomonas aeruginosa. Nature of the experiment: Antibiofilm activity against Pseudomonas aeruginosa ATCC 47085 at sub-MIC doses measured after 24 hrs by crystal violet staining based analysis. It counts as functional.
Another experiment has as its system Acinetobacter baumannii. Nature of the experiment: Antibacterial activity against Acinetobacter baumannii ATCC 19606 assessed as reduction in bacterial growth incubated for 24 hrs by broth microdilution method. It counts as functional.
Experiment [6] has as its system Pseudomonas aeruginosa. Nature of the experiment: Antibacterial activity against Pseudomonas aeruginosa ATCC 47085 assessed as reduction in bacterial growth incubated for 24 hrs by broth microdilution method. It counts as functional.
Experiment [7] relates to Staphylococcus aureus. Nature of the experiment: Antibiofilm activity against vancomycin-intermediate resistant Staphylococcus aureus ATCC 700699/Mu50 at 1/8 time MIC measured after 24 hrs by crystal violet staining based analysis. It counts as functional, organism-based.
The test system of experiment [8] is Enterococcus faecium. Nature of the experiment: Antibiofilm activity against Enterococcus faecium clinical isolate at 1/8 times MIC measured after 24 hrs by crystal violet staining based analysis. It counts as functional, organism-based.
The test system of experiment [9] is Pseudomonas aeruginosa. Nature of the experiment: Antibiofilm activity against Pseudomonas aeruginosa ATCC 47085 at 8 to 16 ug/ml measured after 24 hrs by crystal violet staining based analysis. It is filed as functional, organism-based. The note with it: dose 8-16 µg/ml.
The test system of experiment [10] is Enterococcus faecium. Nature of the experiment: Antibacterial activity against Enterococcus faecium Efm-HS0649 assessed as reduction in bacterial growth incubated for 24 hrs by broth microdilution method. It is filed as functional.
The subject of experiment [11] is Enterococcus faecium. Nature of the experiment: Antibacterial activity against Enterococcus faecium Efm-HS06188 assessed as reduction in bacterial growth incubated for 24 hrs by broth microdilution method. It counts as functional.

Values after ≈ are worked out from the molar mass of the structure shown. Active and inactive are the calls of the source. No cut-off for these calls is given here.

Regarding `COc1ccc(O)c(-c2csc(-c3cc(Cl)c(Cl)[nH]3)n2)c1`, the MIC with Enterococcus faecium [1], in the experiment on Staphylococcus aureus [2] and in the experiment with Streptococcus pyogenes was above 256 µg/mL each time.

For `Oc1c(F)cc(F)cc1-c1csc(-c2cc(Cl)c(Cl)[nH]2)n1`, the MIC in the experiment on Enterococcus faecium [1], with Staphylococcus aureus [2] and in the experiment with Streptococcus pyogenes was above 256 µg/mL in each case.

For the molecule `Oc1c(F)cc(F)cc1-c1csc(-c2[nH]c(Br)c(Br)c2Br)n1`, the minimal inhibitory concentration (MIC) in the experiment on Enterococcus faecium [1], with Staphylococcus aureus [2] and with Streptococcus pyogenes was above 256 µg/mL throughout.

`O=[N+]([O-])c1cc(-c2nc(-c3cc(Cl)cc(Cl)c3O)cs2)[nH]n1`: the minimal inhibitory concentration (MIC) was above 256 µg/mL with Enterococcus faecium [1], 128 µg/mL (≈ 358 µM) in the experiment with Staphylococcus aureus [2] and 8 µg/mL (≈ 22.4 µM) with Streptococcus pyogenes.

On to POLYMYXIN B, for which the result with Enterococcus faecium [3], in the experiment on Staphylococcus aureus [4] and in the experiment with Pseudomonas aeruginosa [5] was inactive. The MIC in the experiment on Klebsiella pneumoniae stood at 2 µg/mL; in the experiment on Acinetobacter baumannii it was 2 µg/mL; with Pseudomonas aeruginosa [6] it was 4 µg/mL.

As to `Oc1ccc(C(F)(F)F)cc1-c1csc(-c2cc(Cl)c(Cl)[nH]2)n1`, the MIC in the experiment with Enterococcus faecium [1] is above 256 µg/mL; with Staphylococcus aureus [2], 4 µg/mL (≈ 10.5 µM); in the experiment on Streptococcus pyogenes, 4 µg/mL (≈ 10.5 µM).

Turning to `Oc1c(Br)cc(Br)cc1-c1csc(-c2cc(Cl)c(Cl)[nH]2)n1`, the MIC in the experiment with Enterococcus faecium [1], with Staphylococcus aureus [2] and in the experiment on Streptococcus pyogenes was above 256 µg/mL each time.

On to `Oc1c(Br)cc(C(F)(F)F)cc1-c1csc(-c2cc(C(F)(F)F)n[nH]2)n1`, for which the MIC with Enterococcus faecium [1] worked out at 8 µg/mL (≈ 17.5 µM); with Staphylococcus aureus [2], 8 µg/mL (≈ 17.5 µM); in the experiment with Streptococcus pyogenes, 16 µg/mL (≈ 34.9 µM).

With `O=[N+]([O-])c1cc(-c2nc(-c3cc(Br)cc(Br)c3O)cs2)[nH]n1`, the outcome in the experiment with Staphylococcus aureus [7], with Enterococcus faecium [8] and in the experiment on Pseudomonas aeruginosa [9] was Active. Besides, the Activity with Enterococcus faecium [3], in the experiment with Staphylococcus aureus [4] and with Pseudomonas aeruginosa [5] was above 60% in each case. For the same molecule, the minimal inhibitory concentration (MIC) in the experiment with Klebsiella pneumoniae was above 256 µg/mL; in the experiment with Enterococcus faecium [1], 16 µg/mL (≈ 35.9 µM); with Staphylococcus aureus [2], 8 µg/mL (≈ 17.9 µM); with Streptococcus pyogenes it was 2 µg/mL (≈ 4.48 µM); in the experiment on Acinetobacter baumannii it was above 256 µg/mL; in the experiment on Pseudomonas aeruginosa [6], above 256 µg/mL.

Regarding `Oc1c(Br)cc(C(F)(F)F)cc1-c1csc(-c2cc(Br)c(Br)[nH]2)n1`, the figures for the MIC in the experiment with Enterococcus faecium [1], with Staphylococcus aureus [2] and with Streptococcus pyogenes were 2 µg/mL (≈ 3.66 µM), 1 µg/mL (≈ 1.83 µM) and 0.5 µg/mL (≈ 0.914 µM), respectively.

`Oc1c(Cl)cc(Cl)cc1-c1csc(-c2cc(C(F)(F)F)n[nH]2)n1`: the outcome in the experiment on Staphylococcus aureus [7], in the experiment on Enterococcus faecium [8] and in the experiment with Pseudomonas aeruginosa [9] was Active. Besides, the Activity with Enterococcus faecium [3], with Staphylococcus aureus [4] and with Pseudomonas aeruginosa [5] was above 60% throughout. Moreover, the MIC in the experiment on Klebsiella pneumoniae is above 256 µg/mL; with Enterococcus faecium [1], 4 µg/mL (≈ 10.5 µM); in the experiment on Staphylococcus aureus [2] it was 4 µg/mL (≈ 10.5 µM); in the experiment with Streptococcus pyogenes it was 4 µg/mL (≈ 10.5 µM); in the experiment with Acinetobacter baumannii it was above 256 µg/mL; in the experiment with Pseudomonas aeruginosa [6], above 256 µg/mL.

Turning to `Oc1c(Cl)cc(Cl)cc1-c1csc(-c2[nH]c(Br)c(Br)c2Br)n1`, the MIC was above 256 µg/mL with Klebsiella pneumoniae; 0.5 µg/mL (≈ 0.913 µM) with Enterococcus faecium [1]; above 256 µg/mL in the experiment with Staphylococcus aureus [2]; 0.25 µg/mL (≈ 0.456 µM) with Streptococcus pyogenes; above 256 µg/mL in the experiment with Acinetobacter baumannii; above 256 µg/mL in the experiment on Pseudomonas aeruginosa [6].

Consider `Oc1c(Cl)cc(Cl)cc1-c1csc(-c2cc(Cl)c(Cl)[nH]2)n1`, for which the MIC in the experiment on Enterococcus faecium [1], in the experiment on Staphylococcus aureus [2] and in the experiment with Streptococcus pyogenes was above 256 µg/mL each time.

For `Oc1c(Br)cc(C(F)(F)F)cc1-c1csc(-c2cc(Cl)c(Cl)[nH]2)n1`, the figures for the MIC with Enterococcus faecium [1], in the experiment on Staphylococcus aureus [2] and in the experiment on Streptococcus pyogenes were above 256 µg/mL, 1 µg/mL (≈ 2.18 µM) and at most 0.125 µg/mL, respectively.

Consider `FC(F)(F)c1cc(Br)cc(-c2csc(-c3[nH]c(Br)c(Br)c3Br)n2)c1`, for which the minimal inhibitory concentration (MIC) in the experiment with Enterococcus faecium [1] worked out at 32 µg/mL (≈ 52.5 µM); in the experiment on Staphylococcus aureus [2], 16 µg/mL (≈ 26.2 µM); in the experiment with Streptococcus pyogenes it was 16 µg/mL (≈ 26.2 µM).

Regarding `Oc1c(Br)cc(Br)cc1-c1csc(-c2cc(Br)c(Br)[nH]2)n1`, the MIC is above 256 µg/mL in the experiment with Enterococcus faecium [1], above 256 µg/mL with Staphylococcus aureus [2] and 2 µg/mL (≈ 3.58 µM) in the experiment with Streptococcus pyogenes.

Turning to `CN[C@H](CC(C)C)C(=O)N[C@H]1C(=O)N[C@@H](CC(N)=O)C(=O)N[C@H]2C(=O)N[C@H]3C(=O)N[C@H](C(=O)N[C@H](C(=O)O)c4cc(O)cc(O)c4-c4cc3ccc4O)[C@H](O)c3ccc(c(Cl)c3)Oc3cc2cc(c3O[C@@H]2O[C@H](CO)[C@@H](O)[C@H](O)[C@H]2O[C@H]2C[C@](C)(N)[C@H](O)[C@H](C)O2)Oc2ccc(cc2Cl)[C@H]1O` [VANCOMYCIN], the outcome with Enterococcus faecium [3], in the experiment with Staphylococcus aureus [4] and in the experiment with Pseudomonas aeruginosa [5] was inactive. Besides, the minimal inhibitory concentration (MIC) in the experiment with Enterococcus faecium [10] is above 256 µg/mL; in the experiment with Enterococcus faecium [1], 16 µg/mL (≈ 11 µM); with Enterococcus faecium [11], above 256 µg/mL; in the experiment with Staphylococcus aureus [2], 8 µg/mL (≈ 5.52 µM); in the experiment on Streptococcus pyogenes, 0.25 µg/mL (≈ 0.173 µM).

For the molecule `O=[N+]([O-])c1cc(-c2nc(-c3cc(C(F)(F)F)cc(Br)c3O)cs2)[nH]n1`, the MIC in the experiment on Enterococcus faecium [1] is above 256 µg/mL; in the experiment with Staphylococcus aureus [2], 8 µg/mL (≈ 18.4 µM); in the experiment on Streptococcus pyogenes it was 4 µg/mL (≈ 9.19 µM).

With `O=[N+]([O-])c1ccc(O)c(-c2csc(-c3cc(Cl)c(Cl)[nH]3)n2)c1`, the values for the minimum inhibitory concentration (MIC) in the experiment on Enterococcus faecium [1], in the experiment with Staphylococcus aureus [2] and in the experiment on Streptococcus pyogenes were above 256 µg/mL, above 256 µg/mL and 32 µg/mL (≈ 89.8 µM), respectively.

`Oc1c(Br)cc(Br)cc1-c1csc(-c2cc(C(F)(F)F)n[nH]2)n1`: the outcome with Staphylococcus aureus [7], with Enterococcus faecium [8] and in the experiment on Pseudomonas aeruginosa [9] was Active. Further, the Activity in the experiment on Enterococcus faecium [3], with Staphylococcus aureus [4] and in the experiment on Pseudomonas aeruginosa [5] was above 60% each time. The MIC in the experiment with Klebsiella pneumoniae is above 256 µg/mL; in the experiment on Enterococcus faecium [1], 4 µg/mL (≈ 8.53 µM); in the experiment with Staphylococcus aureus [2] it was 2 µg/mL (≈ 4.26 µM); in the experiment with Streptococcus pyogenes, 4 µg/mL (≈ 8.53 µM); in the experiment with Acinetobacter baumannii it was above 256 µg/mL; in the experiment with Pseudomonas aeruginosa [6], above 256 µg/mL.

Take `Cc1cc(Cl)c(O)c(-c2csc(-c3cc(Cl)c(Cl)[nH]3)n2)c1`: the MIC with Enterococcus faecium [1], with Staphylococcus aureus [2] and with Streptococcus pyogenes was above 256 µg/mL in each case.

As for `COc1c(Cl)cc(Cl)cc1-c1csc(-c2[nH]c(Br)c(Br)c2Br)n1`, the MIC in the experiment on Enterococcus faecium [1], with Staphylococcus aureus [2] and in the experiment on Streptococcus pyogenes was above 256 µg/mL each time.

As to `Oc1ccccc1-c1csc(-c2cc(Cl)c(Cl)[nH]2)n1`, the MIC in the experiment on Enterococcus faecium [1], in the experiment on Staphylococcus aureus [2] and in the experiment with Streptococcus pyogenes was above 256 µg/mL each time.
